Reference: patent US20250312320A1, “METHOD AND TREATMENT FOR OSTEOARTHRITIS AND DISEASES OF CHONDROCYTE HYPERTROPHY” (The Royal Veterinary College, priority 2022, published 2025)

Test system: ATDC5 micromass
Assay: Dose response of CDK8 inhibitors on ATDC5 micromass (alizarin red / alcian blue)
Assay type: cell-based, mouse
Conditions: day 14
Description: (§1) In brief, 2 μl micromasses were seeded in a 96-well plate and cultured as previous in the presence of BI1347 and additional CDK8i compounds namely BRD6989, AS2863619, SEL120-34A, MSC2530818 and CCT251545. Compound concentrations were titrated 10-fold from 10 μM down to 0.1 nM. On day 14 micromasses were fixed, stained and subsequently leached to allow for dose response analysis to be conducted.
as §1, with “seeded on” for “seeded in”, “additional Mediator kinase inhibitor” for “additional CDK8i”

Structure (SMILES) | alcian blue staining (GAG deposition) (highest concentration of 10 μM) | alcian blue staining (GAG deposition) (all concentrations (10 μM down to 0.1 nM))
Cc1nc2ccc(-n3c(-c4nonc4N)nc4cnccc43)cc2[nH]1.Cl.Cl [AS2863619] | modestly reduced | –
CC1CCc2nc(N)c(C#N)c(-c3cccnc3)c2C1 (stereo not shown) [BRD6989] | – | maintained
Cn1cc(-c2ccc(-c3cncc(Cl)c3N3CCC4(CCNC4=O)CC3)cc2)cn1 [CCT251545] | modestly reduced | –
Cc1c(Br)c(Br)c2c3c1nc(N1CCNCC1)n3CCC2.Cl [SEL120-34A] | modestly reduced | –
